The text below walks through data of ChEMBL document CHEMBL1201862, “PubChem BioAssay data set” (2004).

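Five concentrations, 48 hours, 96-well plates. GI50 is the concentration that inhibits growth by half.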 Calls of active or inactive are those of the source. No stated cut-off is given here; in the data, active = GI50 up to about 1.1 µM and inactive = higher.

Among the test systems are ACHN; COLO 205; HL-60; HOP-62; HT-29; NCI-H226; NCI-H522; OVCAR-3; OVCAR-4; OVCAR-8; RXF 393; SF-295; SF-539; SN12C; TK-10; U-251; UO-31.
Holding throughout (assay): NCI tumour cell line growth inhibition, 48 h

`CCCCCCCCCCCC(=O)c1c(O)cccc1O`: the GI50 in the assay with ACHN is 19.5 µM (inactive); with COLO 205, 15.3 µM (inactive); in the assay on HL-60, 19.9 µM (inactive); with HOP-62 it was 17.6 µM (inactive); in the assay on HT-29, 22.3 µM (inactive); with NCI-H226, 19.3 µM (inactive). Further, the GI50 in the assay on NCI-H522 was 18.7 µM (inactive); in the assay with OVCAR-3, 17.5 µM (inactive); in the assay with OVCAR-4, 20.4 µM (inactive); with OVCAR-8, 17.9 µM (inactive); with RXF 393, 24.4 µM (inactive); in the assay with SF-295 it was 17.2 µM (inactive). In addition, the GI50 in the assay with SF-539 was 18 µM (inactive); in the assay on SN12C, 19 µM (inactive); with TK-10 it was 33 µM (inactive); with U-251, 19.3 µM (inactive); with UO-31, 16.5 µM (inactive).

On to `Cc1c(C(=O)Nc2ccc(Cl)c(C(F)(F)F)c2)oc2cc(O)ccc2/c1=N\NC(N)=S`, for which the GI50 in the assay on ACHN, with COLO 205, in the assay with HL-60, in the assay on HOP-62, in the assay with HT-29 and in the assay with NCI-H226 was > 100 µM (inactive) in each case. Besides, the GI50 with NCI-H522, with OVCAR-3, with OVCAR-4, in the assay with OVCAR-8, in the assay on RXF 393 and in the assay with SF-295 was > 100 µM (inactive) in each case. Also, the GI50 in the assay with SF-539, with SN12C, with TK-10, in the assay with U-251 and in the assay with UO-31 was > 100 µM (inactive) in each case.

As for `Oc1cc2cc(-c3ccccc3)[nH]c2c2ccccc12`, the GI50 was 25 µM (inactive) with ACHN; 10.4 µM (inactive) with COLO 205; 8.15 µM (inactive) with HL-60; > 85.9 µM (inactive) in the assay with HOP-62; 68.9 µM (inactive) in the assay with HT-29; > 100 µM (inactive) in the assay with NCI-H226. Further, the GI50 in the assay on NCI-H522 is 15.3 µM (inactive); with OVCAR-3, 16.3 µM (inactive); with OVCAR-4, 33.4 µM (inactive); with OVCAR-8, 32.7 µM (inactive); in the assay on RXF 393 it was 27.8 µM (inactive); in the assay on SF-295, 7.1 µM (inactive). For the same molecule, the GI50 with SF-539 is 28.6 µM (inactive); in the assay with SN12C, 28.8 µM (inactive); in the assay with TK-10, > 100 µM (inactive); in the assay with U-251, 32.1 µM (inactive); in the assay with UO-31, 19.2 µM (inactive).

For the molecule `CCC1c2cc3n(c(=O)c2COC1O)Cc1c-3nc2ccccc2c1Cl` (configuration not stated), the GI50 in the assay with ACHN was 19.3 µM (inactive); with COLO 205 it was > 89.5 µM (inactive); in the assay on HL-60, 26.9 µM (inactive); in the assay on HOP-62 it was 14.8 µM (inactive); in the assay with HT-29, 70.1 µM (inactive); in the assay on NCI-H226, 39.6 µM (inactive). In addition, the GI50 with NCI-H522 was 5.05 µM (inactive); with OVCAR-3, > 100 µM (inactive); in the assay on OVCAR-4 it was > 65.5 µM (inactive); with OVCAR-8, 55.3 µM (inactive); with RXF 393, 73.8 µM (inactive); with SF-295, 20.9 µM (inactive). Besides, the GI50 in the assay with SF-539 is 22.2 µM (inactive); in the assay with SN12C, 10.1 µM (inactive); in the assay on TK-10, > 100 µM (inactive); with U-251 it was 9.86 µM (inactive); in the assay on UO-31, 19.4 µM (inactive).

Take `N=C(N)NNC(=O)CCCCCCCC(=O)NNC(=N)N`: the GI50 with ACHN was > 100 µM (inactive); in the assay with COLO 205 it was 18.3 µM (inactive); in the assay on HL-60 it was > 100 µM (inactive); in the assay with HOP-62, > 100 µM (inactive); with HT-29, > 100 µM (inactive); in the assay with OVCAR-4, 33.9 µM (inactive). In addition, the GI50 in the assay with RXF 393, in the assay on SF-295, with SF-539, in the assay with SN12C, in the assay with TK-10 and in the assay on U-251 was > 100 µM (inactive) in each case. In addition, the GI50 in the assay with UO-31 was > 100 µM (inactive).

On to `CCOC(=O)C1=C(C)NC(=O)NC1c1ccc(OC)cc1OC` (configuration not stated), for which the GI50 in the assay with ACHN, in the assay with COLO 205, in the assay on HL-60, in the assay with HOP-62, in the assay with HT-29 and with NCI-H226 was > 100 µM (inactive) throughout. The GI50 with NCI-H522 was > 100 µM (inactive); in the assay on OVCAR-3, > 100 µM (inactive); with OVCAR-8, > 100 µM (inactive); in the assay with RXF 393 it was 72.6 µM (inactive); in the assay on SF-295, > 100 µM (inactive); with SN12C, > 100 µM (inactive). For the same molecule, the GI50 in the assay with TK-10 is > 100 µM (inactive); in the assay on U-251 it was 52.6 µM (inactive); in the assay on UO-31, > 100 µM (inactive).

`O=C1C=CC(=O)c2nc3c(cc21)CCC3`: the GI50 in the assay with ACHN is 18.8 µM (inactive); in the assay with COLO 205 it was 14.5 µM (inactive); in the assay on HL-60 it was 4.67 µM (inactive); in the assay with HOP-62 it was > 100 µM (inactive); in the assay with HT-29 it was 45.9 µM (inactive); in the assay with NCI-H522, 12.6 µM (inactive). The GI50 with OVCAR-3 is 17.5 µM (inactive); in the assay on OVCAR-4 it was 15.7 µM (inactive); in the assay with OVCAR-8 it was 15.2 µM (inactive); in the assay with RXF 393, 19.7 µM (inactive); with SF-295, > 100 µM (inactive); in the assay on SF-539, > 10 µM (inactive). Besides, the GI50 in the assay on SN12C is 19.1 µM (inactive); with TK-10, 18.5 µM (inactive); in the assay on U-251, 78.5 µM (inactive); in the assay on UO-31, > 100 µM (inactive).

On to `Brc1cccc(C2SCc3nc4ccccc4n32)c1` (configuration not stated), for which the GI50 with ACHN was 16.3 µM (inactive); in the assay with COLO 205 it was 19.1 µM (inactive); with HL-60 it was 7.94 µM (inactive); in the assay on HOP-62 it was 15.3 µM (inactive); in the assay on HT-29 it was 20.6 µM (inactive); in the assay with NCI-H226 it was 11.2 µM (inactive). The GI50 in the assay on NCI-H522 was 13.9 µM (inactive); in the assay with OVCAR-3, 15.2 µM (inactive); in the assay with OVCAR-4, 19 µM (inactive); in the assay with OVCAR-8, 22.5 µM (inactive); with RXF 393, 5.93 µM (inactive); with SF-295 it was 27.1 µM (inactive). Also, the GI50 was 20.8 µM (inactive) in the assay on SF-539; 13.8 µM (inactive) in the assay on SN12C; 25.1 µM (inactive) in the assay on TK-10; 17 µM (inactive) in the assay on U-251; 9.46 µM (inactive) with UO-31.

Regarding `CN(C)CCNC(=O)c1cccc2ccc(-c3ccncc3)nc12`, the GI50 with ACHN is 1.17 µM (inactive); in the assay with COLO 205 it was 1.3 µM (inactive); in the assay on HL-60 it was 0.877 µM (active); in the assay on HOP-62, 1.66 µM (inactive); in the assay with HT-29 it was 2.54 µM (inactive); with OVCAR-3, 2.78 µM (inactive). Further, the GI50 is 2.79 µM (inactive) in the assay with OVCAR-4; 2.26 µM (inactive) with OVCAR-8; 2.36 µM (inactive) with RXF 393; 2.88 µM (inactive) in the assay on SF-295; 1.45 µM (inactive) in the assay with SF-539; 1.61 µM (inactive) in the assay on SN12C. Also, the results for the GI50 in the assay with TK-10, with U-251 and in the assay with UO-31 were 2.21 µM (inactive), 1.63 µM (inactive) and 1.94 µM (inactive), respectively.

For `COc1cc(Cl)c2c3c(c(C(C)=O)oc13)CCC2`, the GI50 in the assay with ACHN, with COLO 205, in the assay on HL-60, in the assay with HOP-62, with HT-29 and with OVCAR-3 was > 100 µM (inactive) in each case. Moreover, the GI50 with OVCAR-4 is > 100 µM (inactive); with OVCAR-8, > 100 µM (inactive); in the assay with RXF 393, 85.1 µM (inactive); with SF-295 it was > 100 µM (inactive); with SF-539, > 100 µM (inactive); in the assay on SN12C it was > 100 µM (inactive). For the same molecule, the GI50 in the assay with TK-10 and in the assay with U-251 was > 100 µM (inactive) in each case.

On to `CCCc1c2c([nH]c(=O)c1C)C(=O)c1[nH]c(=O)c(C)c(CCC)c1C2=O`, for which the GI50 was 7.48 µM (inactive) with ACHN; 25.8 µM (inactive) with COLO 205; 3.65 µM (inactive) in the assay on HL-60; > 100 µM (inactive) in the assay with HOP-62; 4.75 µM (inactive) with HT-29; 77.3 µM (inactive) with NCI-H226. For the same molecule, the GI50 is 1.46 µM (inactive) in the assay on OVCAR-3; 12.2 µM (inactive) in the assay on OVCAR-4; 4.47 µM (inactive) in the assay on OVCAR-8; 19.4 µM (inactive) in the assay with RXF 393; 47.6 µM (inactive) in the assay on SF-295; > 100 µM (inactive) with SF-539. Moreover, the results for the GI50 in the assay on SN12C, in the assay on TK-10 and in the assay with UO-31 were 3.64 µM (inactive), 73.8 µM (inactive) and 56.4 µM (inactive), respectively.

`CC1=C[C@H]2c3c([nH]c4ccccc34)C(c3c[nH]c4ccccc34)[C@H]2CC1` (some centres not stated): the GI50 is 10.2 µM (inactive) in the assay on ACHN; 3.41 µM (inactive) in the assay on COLO 205; 4.94 µM (inactive) with HL-60; 3.3 µM (inactive) with HT-29; 11 µM (inactive) in the assay with NCI-H226; 5.87 µM (inactive) in the assay with NCI-H522. Also, the GI50 was 8.59 µM (inactive) with OVCAR-8; 1.74 µM (inactive) in the assay on RXF 393; 12.9 µM (inactive) in the assay on SF-539; 3.75 µM (inactive) with SN12C; 14.5 µM (inactive) in the assay on TK-10; 4.55 µM (inactive) in the assay with U-251. Further, the GI50 in the assay with UO-31 was > 10 µM (inactive).

Regarding `CO[C@H](C(=O)O[C@H]1C(=O)N2CC[C@@H]3CCC[C@H]1C32C)c1ccccc1` (some centres not stated), the GI50 in the assay on ACHN, in the assay with COLO 205, in the assay on HL-60, in the assay on HOP-62, with HT-29 and in the assay with NCI-H226 was > 100 µM (inactive) in each case. Moreover, the GI50 in the assay with NCI-H522 is 66.2 µM (inactive); with OVCAR-3, > 100 µM (inactive); with OVCAR-4, > 100 µM (inactive); in the assay with OVCAR-8, > 100 µM (inactive); with RXF 393, > 100 µM (inactive); in the assay on SF-295, > 100 µM (inactive). Besides, the GI50 with SF-539, with SN12C, with U-251 and with UO-31 was > 100 µM (inactive) throughout.
